Reference: publication PMC4411898, “Impact of kinesin Eg5 inhibition by 3,4-dihydropyrimidin-2(1H)-one derivatives on various breast cancer cell features” (BMC Cancer, 2015)

Key:
MCF-7 cells [1] = assay: Apoptosis and necrosis assay (Annexin-V/PI flow cytometry), MCF-7; type: cell-based, human; details: 72 h; 4m 1.0 mM, 4bt 0.8 mM, 4p 0.4 mM, 4bc 1.0 mM, 4x 0.8 mM
Protocol: (§1) For proliferation assays, cells were treated with IC50 concentrations of each compound. Adherent and floating cells were harvested at the same tube and pelleted by centrifugation at 300 g for 5 minutes and stained. Data acquisition of these two fractions put together was performed on a FACSCalibur flow cytometer using CellQuest software and analysed using the FloJo Software. Untreated control cells and DHPMs-treated for 72 h cell samples were stained with Annexin-V-FITC or Annexin-V-Alexa Fluor® 680 and propidium iodide according to the manufacturer’s instructions.

MCF-7 cells [2] = assay: CD44+/CD24- expression analysis, MCF-7; type: cell-based, human; details: 24 h; for CD44-/CD24- subpopulation, MCF-7 (mean ± SEM): 4m 1.0 mM, 4bt 0.8 mM, 4p 0.4 mM, 4bc 1.0 mM, 4x 0.8 mM, monastrol 1.0 mM; for CD44+/CD24+ subpopulation, MCF-7 (mean ± SEM) / CD44-/CD24+ subpopulation, MCF-7 (mean ± SEM) / CD44+/CD24- subpopulation, MCF-7 (mean ± SEM): concentrations as E28; for CD44+/CD24- subpopulation, MCF-7 (mean ± SEM): control 0.38 ± 0.18
Protocol: (§2) For proliferation assays, cells were treated with IC50 concentrations of each compound. Adherent and floating cells were harvested at the same tube and pelleted by centrifugation at 300 g for 5 minutes and stained. Data acquisition of these two fractions put together was performed on a FACSCalibur flow cytometer using CellQuest software and analysed using the FloJo Software. Expression level of CD44 and CD24 in treated and control MCF-7 or MDA-MB-231 cells was measured after 24 h of treatment.

MCF-7 cells [3] = assay: Cell cycle analysis (PI), MCF-7; type: cell-based, human; details: 4m 1 mM, 4bt 0.8 mM, 4p 0.4 mM, 4bc 1.0 mM, 4x 0.8 mM
Protocol: For proliferation assays, cells were treated with IC50 concentrations of each compound. Adherent and floating cells were harvested at the same tube and pelleted by centrifugation at 300 g for 5 minutes and stained. Data acquisition of these two fractions put together was performed on a FACSCalibur flow cytometer using CellQuest software and analysed using the FloJo Software. Control and DHPM-treated cells were harvested at 24, 48 and 72 h, resuspended in ice-cold PBS and fixed with 70% ethanol on ice. Cells were then washed with PBS, harvested and incubated with propidium iodide solution (0.1% Triton X-100, 10 μg/mL propidium iodide, 100 μg/mL DNase free RNase) for 10 min at 37°C. For analysis of cell populations in each cell cycle phase, the sub-G1 picks were excluded and the plots were generated by cell cycle platform data analysis by the FlowJo Software.

MDA-MB-231 cells [4] = assay: Apoptosis and necrosis assay (Annexin-V/PI flow cytometry), MDA-MB-231; type: cell-based, human; details: 72 h; 4m 1.0 mM, 4bt 0.8 mM, 4p 0.4 mM, 4bc 1.0 mM, 4x 0.8 mM
Protocol: as §1

MDA-MB-231 cells [5] = assay: MTT cell viability assay, MDA-MB-231; type: cell-based, human; details: for IC50: 72 h treatment, MTT, read-out: IC50 MDA-MB-231; for Effect on cell viability, MDA-MB-231: all concentrations tested 100 μM – 1.00 mM, 72 h
Protocol: Absorbance readings were measured by a spectrophotometer. Cell viability was normalized to control (vehicle only).

MDA-MB-231 cells [6] = assay: CD44+/CD24- expression analysis, MDA-MB-231; type: cell-based, human; details: 24 h; for CD44-/CD24- subpopulation, MDA-MB-231 (mean ± SEM): 4m 1.0 mM, 4bt 0.8 mM, 4p 0.4 mM, 4bc 1.0 mM, 4x 0.8 mM, monastrol 1.0 mM; for CD44-/CD24+ subpopulation, MDA-MB-231 (mean ± SEM) / CD44+/CD24+ subpopulation, MDA-MB-231 (mean ± SEM) / CD44+/CD24- subpopulation, MDA-MB-231 (mean ± SEM): concentrations as E32; for CD44+/CD24+ subpopulation, MDA-MB-231 (mean ± SEM): control 1.507 ± 0.47; for CD44+/CD24- subpopulation, MDA-MB-231 (mean ± SEM): untreated control 98.45 ± 0.47
Protocol: as §2

Kinesin Eg5 = target: T1, Kinesin Eg5 (Homo sapiens, UniProt P52732); assay: Kinesin inhibition assay (Kinesin ELIPA); type: biochemical; details: compound at its IC50, 30 min, 360 nm
T1 sequence (P52732 1-1056): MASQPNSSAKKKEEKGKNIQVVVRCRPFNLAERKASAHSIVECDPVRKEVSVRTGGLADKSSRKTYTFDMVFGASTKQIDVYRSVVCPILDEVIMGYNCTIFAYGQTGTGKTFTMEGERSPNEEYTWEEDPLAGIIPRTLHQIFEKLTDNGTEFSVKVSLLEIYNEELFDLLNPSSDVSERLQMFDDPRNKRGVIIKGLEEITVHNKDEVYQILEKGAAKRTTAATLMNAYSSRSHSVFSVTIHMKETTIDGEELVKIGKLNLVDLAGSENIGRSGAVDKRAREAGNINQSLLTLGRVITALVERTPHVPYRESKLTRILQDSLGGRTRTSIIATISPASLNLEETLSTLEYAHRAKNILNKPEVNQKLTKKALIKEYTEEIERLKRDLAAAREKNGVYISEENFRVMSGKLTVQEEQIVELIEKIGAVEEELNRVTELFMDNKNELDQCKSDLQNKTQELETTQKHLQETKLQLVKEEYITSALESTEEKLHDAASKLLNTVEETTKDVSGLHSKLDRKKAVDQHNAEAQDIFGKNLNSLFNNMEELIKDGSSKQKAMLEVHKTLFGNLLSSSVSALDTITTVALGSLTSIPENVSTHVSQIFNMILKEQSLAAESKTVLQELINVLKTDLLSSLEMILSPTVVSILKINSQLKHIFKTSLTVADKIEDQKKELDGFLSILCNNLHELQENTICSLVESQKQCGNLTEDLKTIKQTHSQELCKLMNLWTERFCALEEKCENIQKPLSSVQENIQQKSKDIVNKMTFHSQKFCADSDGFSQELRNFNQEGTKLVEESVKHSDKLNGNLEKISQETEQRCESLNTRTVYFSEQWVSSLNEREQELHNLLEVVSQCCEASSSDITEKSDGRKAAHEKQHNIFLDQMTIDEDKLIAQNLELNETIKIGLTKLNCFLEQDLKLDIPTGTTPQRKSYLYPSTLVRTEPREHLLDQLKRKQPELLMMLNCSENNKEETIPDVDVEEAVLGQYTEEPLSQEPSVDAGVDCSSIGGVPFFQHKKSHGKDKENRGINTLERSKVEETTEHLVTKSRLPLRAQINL
Protocol: Kinesin inhibition assays were performed using Kinesin ELIPA (Enzyme Linked Inorganic Phosphate Assay). Reactions were conducted in 96-well plates according to the manufacturer’s recommendations (Kinesin ELIPA Biochem Kit – BK060).
Reactions were measured in spectrophotometer set in kinetic mode and an absorbance wavelength of 360 nm.

`CC(=O)C1=C(C)NC(=O)NC1c1ccccc1[N+](=O)[O-]` (stereo not shown) [Compound 4x] was tested, and the “Cell death by apoptosis, % of MCF-7 cell population” value (MCF-7 cells [1]) was “less pronounced manner”, the “CD44-/CD24- subpopulation, MCF-7 (mean ± SEM)” value (MCF-7 cells [2]) was 2.45 ± 0.52% and the “CD44+/CD24+ subpopulation, MCF-7 (mean ± SEM)” value (MCF-7 cells [2]) was 35.11 ± 19.33%. The “CD44-/CD24+ subpopulation, MCF-7 (mean ± SEM)” value (MCF-7 cells [2]) was 61.35 ± 20.83%, the “CD44+/CD24- subpopulation, MCF-7 (mean ± SEM)” value (MCF-7 cells [2]) was 1.065 ± 0.97% and the “Cell cycle effect, MCF-7, 48 h” value (MCF-7 cells [3]) was “cell cycle arrest at G2/M”. The “Cell death by apoptosis, % of MDA-MB-231 cell population” value (MDA-MB-231 cells [4]) was “less pronounced manner”, the IC50 (MDA-MB-231 cells [5]) was 237 µM and the “Effect on cell viability, MDA-MB-231” value (MDA-MB-231 cells [5]) was “significant decrease in cell viability”. The “CD44-/CD24- subpopulation, MDA-MB-231 (mean ± SEM)” value (MDA-MB-231 cells [6]) was 0.01 ± 0.003%, the “CD44-/CD24+ subpopulation, MDA-MB-231 (mean ± SEM)” value (MDA-MB-231 cells [6]) was 0.020 ± 0.0200% and the “CD44+/CD24+ subpopulation, MDA-MB-231 (mean ± SEM)” value (MDA-MB-231 cells [6]) was 6.08 ± 2.10%. For the same compound, the “CD44+/CD24- subpopulation, MDA-MB-231 (mean ± SEM)” value (MDA-MB-231 cells [6]) was 93.88 ± 2.12% and the “Inhibition of kinesin Eg5 activity in vitro (in words)” value (Kinesin Eg5) was “not statistically significant”.
For `CCOC(=O)C1=C(C)NC(=S)NC1c1ccccc1O` (stereo not shown) [Compound 4p], the “Cell death by apoptosis, % of MCF-7 cell population” value (MCF-7 cells [1]) was “less pronounced manner”, the “CD44-/CD24- subpopulation, MCF-7 (mean ± SEM)” value (MCF-7 cells [2]) was 2.83 ± 0.59% and the “CD44+/CD24+ subpopulation, MCF-7 (mean ± SEM)” value (MCF-7 cells [2]) was 30.40 ± 9.78%. The “CD44-/CD24+ subpopulation, MCF-7 (mean ± SEM)” value (MCF-7 cells [2]) was 66.42 ± 10.57%, the “CD44+/CD24- subpopulation, MCF-7 (mean ± SEM)” value (MCF-7 cells [2]) was 0.33 ± 0.20% and the “Cell cycle effect, MCF-7, 48 h” value (MCF-7 cells [3]) was “cell cycle arrest at G2/M”. For the same compound, the “Cell death by apoptosis, % of MDA-MB-231 cell population” value (MDA-MB-231 cells [4]) was “less pronounced manner”, the IC50 (MDA-MB-231 cells [5]) was 68.4 µM and the “Effect on cell viability, MDA-MB-231” value (MDA-MB-231 cells [5]) was “significant decrease in cell viability”. For the same compound, the “CD44-/CD24- subpopulation, MDA-MB-231 (mean ± SEM)” value (MDA-MB-231 cells [6]) was 0.02 ± 0.009%, the “CD44-/CD24+ subpopulation, MDA-MB-231 (mean ± SEM)” value (MDA-MB-231 cells [6]) was 0.003 ± 0.003% and the “CD44+/CD24+ subpopulation, MDA-MB-231 (mean ± SEM)” value (MDA-MB-231 cells [6]) was 5.507 ± 1.13%. The “CD44+/CD24- subpopulation, MDA-MB-231 (mean ± SEM)” value (MDA-MB-231 cells [6]) was 94.45 ± 1.13% and the “Inhibition of kinesin Eg5 activity in vitro (in words)” value (Kinesin Eg5) was “not statistically significant”.
